Experimental data: patent US20090099133A1, “Isoquinolines Derivatives as Igf-1R Inhibitors” (priority 2005, published 2009)
In brackets after ≈: the same amount, converted by molar mass. Structures can show the parent of a compound that is named as a salt. Where two headings read alike, the source gives them in different places. Each block holds one compound with its values, some of them ahead of it.

Tests used:
alkaline phosphatase = molecular target: T1, alkaline phosphatase (Bos taurus, UniProt P19111); assay: Dephosphorylation by alkaline phosphatase in vitro; assay type: in vitro ADME; conditions: bovine, bovine alkaline phosphatase (type VII S, Sigma-Aldrich); phosphatase concentration of 10 units/ml, 37° C., pH 7.4; read-out: half-life time of dephosphorylation
T1 construct: purchased Sigma-Aldrich type VII S
T1 sequence (P19111 20-506 limits assumed): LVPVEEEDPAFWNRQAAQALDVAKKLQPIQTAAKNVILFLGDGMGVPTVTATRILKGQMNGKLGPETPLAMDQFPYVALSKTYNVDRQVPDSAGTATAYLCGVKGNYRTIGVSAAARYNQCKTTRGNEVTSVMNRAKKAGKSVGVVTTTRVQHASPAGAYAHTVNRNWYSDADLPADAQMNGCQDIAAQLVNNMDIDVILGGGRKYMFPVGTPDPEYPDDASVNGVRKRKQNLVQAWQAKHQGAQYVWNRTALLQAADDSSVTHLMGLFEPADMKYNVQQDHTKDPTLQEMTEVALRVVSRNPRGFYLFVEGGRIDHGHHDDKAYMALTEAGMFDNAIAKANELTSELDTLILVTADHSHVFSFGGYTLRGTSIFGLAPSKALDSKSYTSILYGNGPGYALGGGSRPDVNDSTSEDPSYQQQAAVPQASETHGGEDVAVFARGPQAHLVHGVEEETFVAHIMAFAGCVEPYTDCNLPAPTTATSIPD
From the text: The ability of bovine alkaline phosphatase (type VII S, Sigma-Aldrich) to dephosphorylate the title compound was investigated in vitro. […] Intravenous administration of the title compound is consequently expected to result in a rapid formation of the active moiety (1R)-1-(3,4,5-trimethoxyphenyl)-2-formyl-5-hydroxy-6-methoxy-1,2,3,4-tetrahydroisoquinoline (see FIG. 1).

[1] = Solubility in a physiologically acceptable buffer (sodium phosphate buffer, pH 7.4); assay type: physicochemical; conditions: sodium phosphate buffer at pH 7.4
From the text: The corresponding solubility of the parent compound is about 20 microgram.

[2] = test system: phospho-MAPK (Erk1/2) in DU-145 cells; assay: Inhibition of IGF-1 stimulated phosphorylation of MAPK in DU-145 cells (immunoblotting); assay type: cell-based; conditions: Homo sapiens
Method: (§1) DU-145 cells (prostate cancer) were incubated over night with the title compound in serum free medium. After stimulation for 15 minutes with IGF-1 (50 nM), the cells were lyzed and the lysates analysed by immunoblotting for phospho-MAPK and phospho-AKT.

[3] = test system: phospho-AKT in DU-145 cells; assay: Inhibition of IGF-1 stimulated phosphorylation of AKT in DU-145 cells (immunoblotting); assay type: cell-based; conditions: Homo sapiens, 0.25 h, incubated over night in serum free medium, IGF-1 (50 nM) stimulation 15 minutes
Method: as §1

SMILES: COc1cc([C@@H]2c3ccc(OC)c(OP(=O)(O)O)c3CCN2C=O)cc(OC)c1OC [(1R)-1-(3,4,5-trimethoxyphenyl)-2-formyl-5-(dihydrogen phosphate)-6-methoxy-1,2,3,4-tetrahydroisoquinoline]
half-life (alkaline phosphatase): 8 min | solubility ([1]; aqueous buffer, read-out: solubility): > 50000 µg/mL

SMILES: COc1cc([C@@H]2c3cc4c(cc3[C@H](O)[C@H]3COC(=O)[C@@H]23)OCO4)cc(OC)c1OC [Picropodophyllin, reference compound]
IC50 ([2]; standard, read-out: IC50 inhibition of phospho-MAPK (Erk1/2)): ~5000 nM

SMILES: COc1cc([C@@H]2c3ccc(OC)c(OP(=O)(O)O)c3CCN2C=O)cc(OC)c1OC (as salt: phosphate) [(1R)-1-(3,4,5-trimethoxyphenyl)-2-formyl-5-(dihydrogen phosphate)-6-methoxy-1,2,3,4-tetrahydroisoquinoline]
melting point: 138 to 141 °C

IC50 ([2]; 0.25 h, incubated over night in serum free medium, IGF-1 (50 nM) stimulation 15 minutes, read-out: IC50 inhibition of phosphorylation of MAPK (Erk1/2)): 50 nM | IC50 [3]: 40 nM | solubility ([1]; aqueous buffer, parent compound, read-out: solubility): ~20 µg/mL (≈ 53.6 µM) | solubility ([1]; parent compound): about 20 microgram | melting point: 190 to 192 °C
SMILES: COc1ccc2c(c1O)CCN(C=O)[C@@H]2c1cc(OC)c(OC)c(OC)c1 [(1R)-1-(3,4,5-trimethoxyphenyl)-2-formyl-5-hydroxy-6-methoxy-1,2,3,4-tetrahydroisoquinoline]
